Test results as given in patent US20040241839A1, “Culturing neural stem cells” (priority 2003, published 2004).
Where two headings read alike, the source gives them in different places.

What was measured:
[1] = test system: dissociates of postnatal C57/BL mouse forebrain (neurospheres); assay: Formation and growth of neurospheres in serum-free semi-solid methylcellulose medium with growth factors; assay type: cell-based
Experimental: Preparation of single-cell suspensions and cloning in MC. Dissociates of postnatal (5-7 days old) C57/BL mouse forebrain (subependymal zone and hippocampus) were used to generate suspended clones under anchorage and serum withdrawal in semi-solid methyl cellulose (MC). The procedures were performed as previously described Kukekov et al., Glia 21:399-407, 1997; and Kukekov et al., Exp Neurol, 156:333-344, 1999, with some additional modifications. Brain samples (approximately 10 mm^3) were minced, transferred to a beaker containing a solution of 0.25% trypsin in 0.1 mM EDTA (mixture 4:1), and slowly stirred on a magnetic plate at roomm temperature for 15 minutes. After trituration through a plastic 5 ml pipette and a fire-polished Pasteur pipette, the dissociate was washed (5-8 times in 5 ml of medium) to eliminate cellular debris.
The resultant suspension was filtered through sterile gauze, and verified to contain only single cells which were counted with a hemocytometer. Finally, cells were resuspended in 0.8% MC-based medium (NeuroCult medium, Cat. #03237, StemCell Technologies, Vancouver, BC) and plated at a clonal density (i.e., about […]) in 6-well plates coated with a non-adhesive substrate, i.e., poly 2-hydroxyethyl methacrylate (poly-HEME, Sigma) according to the manufacturer's instructions. Cells were maintained in a 37° C. incubator with 95% air, 5% CO2, and 100% humidity. Clones became visible under an inverted phase microscope approximately one week after plating.
Morphometric analysis of neurospheres. The number and diameters of neurospheres was assessed using an inverted phase microscope equipped with a size covering net. The number of neurospheres in each experimental group was normalized to the protein content. Aliquots of suspensions were removed for protein measurement using Pierce BCA protein Kit (Pierce, Rockford, Ill.) according to the manufacturer's instructions. Measurements were taken following one, two and three weeks of growth in vitro.
Using the above-described methods, dissociates of postnatal(5-7 days old) C57/BL mouse forebrain, (subependymal zone and hippocampus) were used to generate suspended clones under anchorage and serum withdrawal in semi-solid MC (MC-clones) Equal amounts of dissociates were placed in serum-free DMEM/F12, 1:1 medium supplemented with 0.8% MC and insulin (NeuroCult medium, Cat. #03237, StemCell Technologies, Vancouver, BC) in the presence of (i) 10 ng/ml EGF plus 10 ng/ml FGF2, (ii) 10 μM LPA alone and (iii) EGF+FGF2 in combination with LPA. Growth factors, i.e., EGF, FGF2 were obtained from Peprotech, Inc., and LPA was obtained from LPA-Avanti Polar Lipids, Inc. Freshly prepared aliquots of EGF and FGF2 were added every 3 days during a 21 day interval of clone (neurosphere) generation. The numbers and diameters of neurospheres were measured at the end of the third week in vitro.
Using methods described above, cells were recovered after complete dissociation of mouse forebrain to single cells and plated at a density of ˜10^4 cells/well in serum free semi-solid methylcellulose medium containing growth factors, ie., 10 μM oleoyl (C18:1) LPA, or 10 ng/ml each of EGF and FGF2. […] Neurosphere growth persisted during the second week in semi-solid medium continuously supplemented with LPA or EGF+FGF2 (FIG. 1B).

[2] = test system: neurospheres (AC133 and Sca-1 antigens); assay: Immunocytochemical staining of neurospheres grown in the presence of LPA; assay type: cell-based, mouse
Experimental: Neurospheres were grown in suspension in the presence of LPA for 18 days, then transferred onto cover slips coated with laminin and poly-L-ornithine. The neurospheres attached within 6 hours and were allowed to spread and differentiate for an additional 48 hours. Cover slips were then fixed and processed for immunostaining. Antibodies used in these studies included antibodies against AC133 antigen (Miltenyi Biotech) and Sca-1 antigen (BD Pharmingen), against LPA receptors LPA1, LPA2 and LPA3 Exalpha Biologicals Inc., Antibody Solutions), βIII-tubulin (ovance, Inc.), and nestin (Chemicon, Inc.), CNPase (Sigma). To study the effect of LPA on differentiation of neurospheres, in some cases double immunostaining of LPA receptors and neuronal markers was performed. Results were analyzed using confocal microscopy. Visualization of the proteins was performed by two-color fluorescent dye labeling (i.e., red-Texas Red, green-Alexa Green) and subsequent analysis in laser confocal microscope appropriately equipped with filters of different wavelengths. The images were taken at the same gain setting for each filter within one experimental set. As an example, referring to FIG. 2A, B, the presence of AC133 antigen was detected by red fluorescence and that of Sca-1 by green fluorescence using separate wavelength visualization. AC133/Sca-1 co-localization was detected as yellow fluorescence using dual wavelength visualization (shown in right column of FIG. 2).
Neurospheres were grown using methods described above in the presence of LPA in semi-solid medium for two weeks. Aliquots of neurospheres were then removed and placed onto glass cover slips coated with laminin/poly-L-ornithine. Fresh medium without methyl cellulose and FBS (10% final) were added to initiate neurosphere adherence to the cover slip surface. The neurospheres became completely attached within 4 to 6 hours after transfer. […]
Cover slips were then fixed, stained with antibodies against AC133, Sca-1, LPA1, LPA2 and LPA3 receptors and analyzed using immunofluorescent techniques, as described above. […]

LPA1 receptor = LPA1 receptor (Homo sapiens, UniProt Q92633); settings: high concentration; cited from earlier work
Chain of LPA1 receptor (Q92633 whole entry): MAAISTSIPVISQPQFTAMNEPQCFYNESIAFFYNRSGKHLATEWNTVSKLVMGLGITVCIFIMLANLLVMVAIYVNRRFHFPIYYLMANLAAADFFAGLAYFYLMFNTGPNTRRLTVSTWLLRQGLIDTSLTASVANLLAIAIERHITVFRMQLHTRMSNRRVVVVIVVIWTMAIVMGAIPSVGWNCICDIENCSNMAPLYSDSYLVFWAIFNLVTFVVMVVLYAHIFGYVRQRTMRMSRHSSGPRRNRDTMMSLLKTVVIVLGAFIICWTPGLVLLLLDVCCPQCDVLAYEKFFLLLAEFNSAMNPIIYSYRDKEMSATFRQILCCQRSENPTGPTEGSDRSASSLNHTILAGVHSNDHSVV

LPA3 receptor = molecular target: T1, LPA3 receptor (Homo sapiens, UniProt Q9UBY5); settings: cited from earlier work
T1 sequence (Q9UBY5 1-353): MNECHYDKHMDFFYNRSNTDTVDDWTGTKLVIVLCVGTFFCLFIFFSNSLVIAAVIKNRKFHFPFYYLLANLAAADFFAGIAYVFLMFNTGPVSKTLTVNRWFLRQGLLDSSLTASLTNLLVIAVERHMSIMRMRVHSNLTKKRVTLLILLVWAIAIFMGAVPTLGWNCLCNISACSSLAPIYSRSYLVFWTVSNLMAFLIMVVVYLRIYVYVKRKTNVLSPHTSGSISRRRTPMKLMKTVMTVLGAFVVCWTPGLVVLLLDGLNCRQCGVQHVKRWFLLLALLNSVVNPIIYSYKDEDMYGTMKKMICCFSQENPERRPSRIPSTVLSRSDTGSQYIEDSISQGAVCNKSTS

[3] = test system: LPA-induced formation of neurospheres; settings: for size of neurospheres generated by LPA: 2 weeks (FIG. 1C); for numbers of neurospheres formed: 2 weeks (FIG. 1D)
Experimental: In (C, D), neurospheres were maintained in culture for 2 weeks in the presence of LPA alone or LPA plus 1 μM or 50 μM DGPP. The number/field and the size of at least 200 neurospheres formed at 2 weeks were counted. The results are presented as mean +SEM of three independent experiments from four different neurosphere preparations. Unpaired Student's t-test was used to assess significance of the mean difference, and F test was used to compare variances.
To examine the potential involvement of LPA receptors in the LPA-induced formation of neurospheres, the effect of DGPP at low concentration (i.e., 1 μM) and high concentration (i.e., 50 μM) was compared.

[4] = 10 μM LPA or 10 ng/ml each EGF and FGF2
[5] = grown two weeks in LPA, attached to cover slips

Compound | diameter of neurospheres, Maximum [1, 4] | diameter of neurospheres, Median [1, 4] | diameter of neurospheres, Minimum [1, 4] | diameter of neurospheres, Mode [1, 4] | number of neurospheres per field (Count) [1, 4] | diameter of neurospheres, Mean ([1]; 10 μM LPA or 10 ng/ml each EGF and FGF2, serum-free methylcellulose medium) [μm] | time for which neurosphere development was sustained ([1]; continuous supplementation with growth factor) | formation of neurospheres ([1]; first week in culture, 10 μM oleoyl LPA or 10 ng/ml each EGF and FGF2) | Sca-1 antigen and AC133 in the residual core of neurospheres grown attached ([2]; grown attached in the presence of the growth factor) | co-localization of AC133 and Sca-1 throughout the neurospheres [2, 5] [%] | expression of AC133 and Sca-1 antigens in neurospheres [2, 5] | LPA activation of LPA1 receptor (LPA1 receptor) | LPA activation of LPA3 receptor (LPA3 receptor; high concentration) | effect on LPA3 receptor (LPA3 receptor; low concentration) | size of neurospheres generated by LPA ([3]; DGPP 1 μM plus LPA) | numbers of neurospheres formed ([3]; DGPP 1 μM plus LPA) | size of neurospheres generated by LPA ([3]; DGPP 50 μM plus LPA) | numbers of neurospheres formed ([3]; DGPP 50 μM plus LPA, p=0.0056) | LPA-induced formation and growth of neurospheres ([3]; concentration not given)
1 -acyl-2-hydroxy-sn-glycero-3-phosphate [LPA] | 204 | 72.25 | 14.1 | 55.4 | 220 | 79.54 | up to 3 months | formed distinguishable neurospheres | still detected | ~100 | expressed both AC133 and Sca-1 antigens |  |  |  |  |  |  |  | 
CCCCCCCC(=O)OC[C@H](COP(=O)(O)OP(=O)(O)O)OC(=O)CCCCCCC [DGPP, diacyl-glycerol pyrophosphate] |  |  |  |  |  |  |  |  |  |  |  | blocks | blocks | preferentially inhibit | significantly reduced | not | significantly reduced | decreased considerably | specifically inhibited
